Measured values taken from ChEMBL document CHEMBL1152080, “Linear sesterterpenes from the Caribbean sponge Thorecta horridus with inflammatory activity” (1991).

Assays:
Format in all cases: functional
Rattus norvegicus [1] = species on record: Rattus norvegicus; test: Percent release of histamine from rat peritoneal cells was determined at 0.1 ug/mL concentration of compound
Rattus norvegicus [2] = test: Compound was evaluated in vivo for its inflammatory activity in rat paw pretreated with mepyramine (2.5 mg/kg) and methysergide (3 mg/Kg)after administration of compound (1 mg) and percent edema was reported
Rattus norvegicus [3] = species on record: Rattus norvegicus; test: Percent release of histamine from rat peritoneal cells was determined at 1 ug/mL concentration of compound
Rattus norvegicus [4] = species on record: Rattus norvegicus; test: Percent release of histamine from rat peritoneal cells was determined at 10 ug/mL concentration of compound

## CC(C)=CCC/C(C)=C/CC/C(C)=C/CC/C(C)=C/CCC1=CC(=O)OC1
Rattus norvegicus [1]
  Histamine release: 4%
Rattus norvegicus [2]
  Supression: 65%
Rattus norvegicus [3]
  Histamine release: 11%
Rattus norvegicus [4]
  Histamine release: 30%
